Assays:
[1] = tested on: Cyperus serotinus; assay: Test Example 4: herbicidal effects of mixed wettable powder, paddy-field pot test; assay type: in vivo; conditions: no second compound, after 25 days
Method: (§1) Paddy filed soil was filled in 1/5000 are Wagner pot, seeds of barnyardgrass (Echinochloa oryzicola Vasing.), Scirpus joncoides and annual broad-leaved weeds (Lindernia spp. and Rotala indica) which are awaken from dormancy were mixed at the surface layer of 1 cm. Also, tubers of Cyperus serotinus, Sagittaria pygmaea and Eleocharis kuroguwai which are awaken from dormancy were planted, and further seedlings of paddy-field rice at 2.2-leaf stage were transplanted and they were grown under the flooded condition in a greenhouse. After 3 days from the transplanting, a predetermined chemical dosage of the wettable powder prepared in accordance with Preparation example 5 was diluted with water, and applied to the pot. After 25 days, herbicidal effects and crop injury against transplanted paddy-field rice were judged according to the following judgment standard, and the results were shown in Table 5. Incidentally, “-” in the table means a composition containing no effective ingredient.
(§2) Judgment Standard • 0: Growth-inhibition rate; 0 to 15% • 1: Growth inhibition rate; 16 to 35% • 2: Growth inhibition rate; 36 to 55% • 3: Growth inhibition rate; 56 to 75% • 4: Growth inhibition rate; […] • 5: Growth inhibition rate; 96 to 100%.

[2] = tested on: Eleocharis kuroguwai; assay: as above; assay type: in vivo; conditions: no second compound, after 25 days
Method: as §1, §2

[3] = tested on: Sagittaria pygmaea; assay: as above; assay type: in vivo; conditions: no second compound, after 25 days
Method: as §1, §2

[4] = tested on: Scirpus joncoides; assay: as above; assay type: in vivo; conditions: no second compound, after 25 days
Method: as §1, §2

[5] = tested on: annual broad-leaved weeds (Lindernia spp. and Rotala indica); assay: as above; assay type: in vivo; conditions: no second compound, after 25 days
Method: as §1, §2

[6] = tested on: barnyardgrass (Echinochloa oryzicola Vasing.); assay: as above; assay type: in vivo; conditions: no second compound, after 25 days
Method: as §1, §2

[7] = tested on: transplanted paddy-field rice; assay: Test Example 4: crop injury against transplanted paddy-field rice; assay type: in vivo; conditions: no second compound, after 25 days
Method: as §1, §2

[8] = tested on: Cyperus serotinus; assay: Test Example 1: herbicidal effects, paddy-field pot test; assay type: in vivo; conditions: wettable powder applied 3 days after transplanting, judged after 25 days
How it was run: (§3)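 Paddy soil pots sown with dormancy-broken weed seeds mixed into the top 1 cm, plus germinated Cyperus serotinus tubers and transplanted 2.2-leaf rice seedlings, grown flooded in a greenhouse. Water-diluted wettable powder applied 3 days after transplanting; growth inhibition scored 25 days later on a 0–5 scale (0 = 0–10%, 5 = 91–100%).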

[9] = tested on: Scirpus joncoides; assay: as above; assay type: in vivo; conditions: wettable powder applied 3 days after transplanting, judged after 25 days
How it was run: as §3

[10] = tested on: annual broad-leaved weeds (Lindernia spp., Rotala indica); assay: as above; assay type: in vivo; conditions: wettable powder applied 3 days after transplanting, judged after 25 days
How it was run: as §3

[11] = tested on: barnyardgrass (Echinochloa oryzicola Vasing.); assay: as above; assay type: in vivo; conditions: wettable powder applied 3 days after transplanting, judged after 25 days
How it was run: as §3

[12] = tested on: transplanted paddy-field rice; assay: Test Example 1: crop injury against transplanted paddy-field rice; assay type: in vivo; conditions: wettable powder applied 3 days after transplanting, judged after 25 days
How it was run: as §3

Structure (SMILES) | Herbicidal effects Cyperus serotinus ([1]; derivative 5 g/a) | Herbicidal effects Cyperus serotinus ([1]; derivative 10 g/a) | Herbicidal effects Eleocharis kuroguwai ([2]; derivative 5 g/a) | Herbicidal effects Eleocharis kuroguwai ([2]; derivative 10 g/a) | Herbicidal effects Sagittaria pygmaea ([3]; derivative 5 g/a) | Herbicidal effects Sagittaria pygmaea ([3]; derivative 10 g/a) | Herbicidal effects Scirpus joncoides ([4]; derivative 5 g/a) | Herbicidal effects Scirpus joncoides ([4]; derivative 10 g/a) | Herbicidal effects Broad leaf ([5]; derivative 5 g/a) | Herbicidal effects Broad leaf ([5]; derivative 10 g/a) | Herbicidal effects Barnyard grass ([6]; derivative 5 g/a) | Herbicidal effects Barnyard grass ([6]; derivative 10 g/a) | Crop injury against transplanted rice ([7]; derivative 5 g/a) | Crop injury against transplanted rice ([7]; derivative 10 g/a) | Herbicidal effects Cyperus serotinus ([8]; chemical dosage 10 g/a) | Herbicidal effects Cyperus serotinus ([8]; chemical dosage 20 g/a) | Herbicidal effects Scirpus joncoides ([9]; chemical dosage 10 g/a) | Herbicidal effects Scirpus joncoides ([9]; chemical dosage 20 g/a) | Herbicidal effects Broad leaf ([10]; chemical dosage 10 g/a) | Herbicidal effects Broad leaf ([10]; chemical dosage 20 g/a) | also measured
N#CC1CC1c1ccccc1Oc1nnc(Cl)cc1O (centres unmarked) [Compound No. 226, 2-{2-[(6-Chloro-4-hydroxy-3-pyridazinyl)oxy]phenyl}-cyclopropanecarbonitrile] | 5 (Growth inhibition rate; 96 to 100%) | 5 (Growth inhibition rate; 96 to 100%) | 1 (Growth inhibition rate; 16 to 35%) | 2 (Growth inhibition rate; 36 to 55%) | 5 (Growth inhibition rate; 96 to 100%) | 5 (Growth inhibition rate; 96 to 100%) | 4 (Growth inhibition rate; 7.6 to 95%) | 5 (Growth inhibition rate; 96 to 100%) | 5 (Growth inhibition rate; 96 to 100%) | 5 (Growth inhibition rate; 96 to 100%) | 3 (Growth inhibition rate; 56 to 75%) | 3 (Growth inhibition rate; 56 to 75%) | 0 (Growth-inhibition rate; 0 to 15%) | 0 (Growth-inhibition rate; 0 to 15%) | – | – | – | – | – | – | melting point: 203 to 207 °C
Cc1ccccc1Oc1nnc(Cl)cc1O [Example 1] | 4 (Growth inhibition rate; 7.6 to 95%) | 5 (Growth inhibition rate; 96 to 100%) | 0 (Growth-inhibition rate; 0 to 15%) | 0 (Growth-inhibition rate; 0 to 15%) | 4 (Growth inhibition rate; 7.6 to 95%) | 4 (Growth inhibition rate; 7.6 to 95%) | 2 (Growth inhibition rate; 36 to 55%) | 4 (Growth inhibition rate; 7.6 to 95%) | 3 (Growth inhibition rate; 56 to 75%) | 4 (Growth inhibition rate; 7.6 to 95%) | 2 (Growth inhibition rate; 36 to 55%) | 4 (Growth inhibition rate; 7.6 to 95%) | 0 (Growth-inhibition rate; 0 to 15%) | 0 (Growth-inhibition rate; 0 to 15%) | – | – | – | – | – | – | Herbicidal effects Cyperus serotinus ([8]; chemical dosage 12.5 g/a): 5 (Growth inhibition rate; 91 to 100%); Herbicidal effects Cyperus serotinus ([8]; chemical dosage 25 g/a): 5 (Growth inhibition rate; 91 to 100%); Herbicidal effects Scirpus joncoides ([9]; chemical dosage 12.5 g/a): 5 (Growth inhibition rate; 91 to 100%); Herbicidal effects Scirpus joncoides ([9]; chemical dosage 25 g/a): 5 (Growth inhibition rate; 91 to 100%); Herbicidal effects Broad leaf ([10]; chemical dosage 12.5 g/a): 5 (Growth inhibition rate; 91 to 100%); Herbicidal effects Broad leaf ([10]; chemical dosage 25 g/a): 5 (Growth inhibition rate; 91 to 100%); Herbicidal effects Barnyard grass ([11]; chemical dosage 12.5 g/a): 4 (Growth inhibition rate; 71 to 90%); Herbicidal effects Barnyard grass ([11]; chemical dosage 25 g/a): 5 (Growth inhibition rate; 91 to 100%); Crop injury against transplanted rice ([12]; chemical dosage 12.5 g/a): 0 (Growth inhibition rate; 0 to 10%); Crop injury against transplanted rice ([12]; chemical dosage 25 g/a): 0 (Growth inhibition rate; 0 to 10%)
Oc1cc(Cl)nnc1Oc1ccccc1C1CC1 [Example 6] | 5 (Growth inhibition rate; 96 to 100%) | 5 (Growth inhibition rate; 96 to 100%) | 2 (Growth inhibition rate; 36 to 55%) | 3 (Growth inhibition rate; 56 to 75%) | 5 (Growth inhibition rate; 96 to 100%) | 5 (Growth inhibition rate; 96 to 100%) | 5 (Growth inhibition rate; 96 to 100%) | 5 (Growth inhibition rate; 96 to 100%) | 5 (Growth inhibition rate; 96 to 100%) | 5 (Growth inhibition rate; 96 to 100%) | 1 (Growth inhibition rate; 16 to 35%) | 2 (Growth inhibition rate; 36 to 55%) | 0 (Growth-inhibition rate; 0 to 15%) | 0 (Growth-inhibition rate; 0 to 15%) | 5 (Growth inhibition rate; 91 to 100%) | 5 (Growth inhibition rate; 91 to 100%) | 5 (Growth inhibition rate; 91 to 100%) | 5 (Growth inhibition rate; 91 to 100%) | 5 (Growth inhibition rate; 91 to 100%) | 5 (Growth inhibition rate; 91 to 100%) | Herbicidal effects Barnyard grass ([11]; chemical dosage 10 g/a): 2 (Growth inhibition rate; 31 to 50%); Herbicidal effects Barnyard grass ([11]; chemical dosage 20 g/a): 3 (Growth inhibition rate; 51 to 70%); Crop injury against transplanted rice ([12]; chemical dosage 10 g/a): 0 (Growth inhibition rate; 0 to 10%); Crop injury against transplanted rice ([12]; chemical dosage 20 g/a): 0 (Growth inhibition rate; 0 to 10%)
COc1ccc(C)cc1Oc1nnc(Cl)cc1O [Example 16] | 4 (Growth inhibition rate; 7.6 to 95%) | 5 (Growth inhibition rate; 96 to 100%) | 0 (Growth-inhibition rate; 0 to 15%) | 1 (Growth inhibition rate; 16 to 35%) | 3 (Growth inhibition rate; 56 to 75%) | 4 (Growth inhibition rate; 7.6 to 95%) | 3 (Growth inhibition rate; 56 to 75%) | 5 (Growth inhibition rate; 96 to 100%) | 5 (Growth inhibition rate; 96 to 100%) | 5 (Growth inhibition rate; 96 to 100%) | 0 (Growth-inhibition rate; 0 to 15%) | 0 (Growth-inhibition rate; 0 to 15%) | 0 (Growth-inhibition rate; 0 to 15%) | 0 (Growth-inhibition rate; 0 to 15%) | 5 (Growth inhibition rate; 91 to 100%) | 5 (Growth inhibition rate; 91 to 100%) | 5 (Growth inhibition rate; 91 to 100%) | 5 (Growth inhibition rate; 91 to 100%) | 5 (Growth inhibition rate; 91 to 100%) | 5 (Growth inhibition rate; 91 to 100%) | Herbicidal effects Barnyard grass ([11]; chemical dosage 10 g/a): 0 (Growth inhibition rate; 0 to 10%); Herbicidal effects Barnyard grass ([11]; chemical dosage 20 g/a): 1 (Growth inhibition rate; 11 to 30%); Crop injury against transplanted rice ([12]; chemical dosage 10 g/a): 0 (Growth inhibition rate; 0 to 10%); Crop injury against transplanted rice ([12]; chemical dosage 20 g/a): 0 (Growth inhibition rate; 0 to 10%)
Oc1cc(Cl)nnc1Oc1cccc2ccoc12 [Example 191] | – | – | – | – | – | – | – | – | – | – | – | – | – | – | 5 (Growth inhibition rate; 91 to 100%) | 5 (Growth inhibition rate; 91 to 100%) | 5 (Growth inhibition rate; 91 to 100%) | 5 (Growth inhibition rate; 91 to 100%) | 5 (Growth inhibition rate; 91 to 100%) | 5 (Growth inhibition rate; 91 to 100%) | Herbicidal effects Barnyard grass ([11]; chemical dosage 10 g/a): 4 (Growth inhibition rate; 71 to 90%); Herbicidal effects Barnyard grass ([11]; chemical dosage 20 g/a): 5 (Growth inhibition rate; 91 to 100%); Crop injury against transplanted rice ([12]; chemical dosage 10 g/a): 2 (Growth inhibition rate; 31 to 50%); Crop injury against transplanted rice ([12]; chemical dosage 20 g/a): 5 (Growth inhibition rate; 91 to 100%); Herbicidal effects Cyperus serotinus ([1]; derivative 2.5 g/a): 5 (Growth inhibition rate; 96 to 100%); Herbicidal effects Eleocharis kuroguwai ([2]; derivative 2.5 g/a): 1 (Growth inhibition rate; 16 to 35%); Herbicidal effects Sagittaria pygmaea ([3]; derivative 2.5 g/a): 2 (Growth inhibition rate; 36 to 55%); Herbicidal effects Scirpus joncoides ([4]; derivative 2.5 g/a): 3 (Growth inhibition rate; 56 to 75%); Herbicidal effects Broad leaf ([5]; derivative 2.5 g/a): 3 (Growth inhibition rate; 56 to 75%); Herbicidal effects Barnyard grass ([6]; derivative 2.5 g/a): 1 (Growth inhibition rate; 16 to 35%); Crop injury against transplanted rice ([7]; derivative 2.5 g/a): 0 (Growth-inhibition rate; 0 to 15%)

From patent US7964531B2, “3-phenoxy-4-pyridazinol derivatives and herbicidal composition containing the same” (Mitsui Chemicals Agro, Inc., priority 2001, dated 2011)
